Results from patent publication US8796339B2, “Compositions comprising benzyl alcohol derivatives and further antimicrobial active compounds” (Symrise AG, priority 2008, dated 2014).

Test system: Aspergillus niger ATCC 16404
Test: Testing for adequate preservation (European Pharmacopoeia 5.1.3 preservative stress test) of inoculated cosmetic emulsions
Type: cell-based
Conditions: for Aspergillus niger germ count at 0 days (initial, "0 value") / Aspergillus niger germ count at 2 days / Aspergillus niger germ count at 7 days: 1.0% product in O/W emulsion pH 5.5, B=1.0% 4-methylbenzyl alcohol; for Aspergillus niger germ count at 0 days (initial, "0 value") / cfu/ml at 0 days: day 0; for Aspergillus niger germ count at 2 days / cfu/ml at 2 days: day 2; for Aspergillus niger germ count at 7 days / cfu/ml at 7 days: day 7; for cfu/ml at 0 days / cfu/ml at 2 days / cfu/ml at 7 days / cfu/ml at 14 days: 4-methylbenzyl alcohol 0.4%; for cfu/ml at 14 days: day 14
Procedure: Testing for adequate preservation was carried out in accordance with the European Pharmacopoeia. Testing thus comprises contamination of the formulation, if possible in its final condition, with a prescribed inoculum of suitable microorganisms, storage of the inoculated formulation at a certain temperature, removal of samples from the container at certain intervals of time and determination of the number of microorganisms in the samples removed in this way. The preserving properties are adequate if, under the conditions of the test, a clear reduction or, where appropriate, no increase in the germ count results in the inoculated formulations after the prescribed times at the prescribed temperatures. Experimental details of the test procedure are described in the European Pharmacopoeia (ISBN 3-7692-2768-9; Supplement 2001 to the 3rd Edition, page 421-422, chapter 5.1.3). E: Aspergillus niger ATCC 16404 The initial germ count (cfu/ml; “0 value”) was in the range of from 230000 to 400000 in the various test series. For the tests for adequate preservation, a defined amount of the active compound combination according to the invention (product C) was incorporated into an O/W emulsion. For comparison purposes, the comparison products (product A and B) were incorporated into separate O/W emulsions. […] Phenonip® is a commercially available (Clariant, Nipa preservatives) and in cosmetic formulations widely used antimicrobial active mixture consisting of phenoxyethanol, methylparaben, ethylparaben, butylparaben, propylparaben and isobutylparaben. Testing for adequate preservation was carried out in accordance with the European Pharmacopoeia, as explained in Example 1a. The initial germ count (cfu/ml; “0 value”) was in the range of from 200,000 to 400,000 in the various test series.

[1] = Example 1a, A=0.5% 1,2-hexanediol+0.5% 1,2-octanediol, C=0.4%+0.4%+0.2%
[2] = Example 1b, A=0.25% 1,2-hexanediol+0.75% 1,2-octanediol, C=0.2%+0.6%+0.2%
[3] = Example 2, A=1.0% 1,2-octanediol, C=0.8% 1,2-octanediol+0.2% 4-methylbenzyl alcohol
[4] = Example 3, Table 7, dosage: 1,2-pentanediol 4.0%, mixture 2.0%+0.2%
[5] = Example 3, Table 8, dosage: 1,2-hexanediol 3.0%, mixture 1.5%+0.2%
[6] = Example 3, Table 9, dosage: 1,2-decanediol 1.0%, mixture 0.5% (title; listed as prints 1.5%)+0.2%

Row | SMILES | Aspergillus niger germ count at 0 days (initial, "0 value") [1] [cfu/ml] | Aspergillus niger germ count at 2 days [1] [cfu/ml] | Aspergillus niger germ count at 7 days [1] [cfu/ml] | Aspergillus niger germ count at 0 days (initial, "0 value") [2] [cfu/ml] | Aspergillus niger germ count at 2 days [2] [cfu/ml] | Aspergillus niger germ count at 7 days [2] [cfu/ml] | Aspergillus niger germ count at 0 days (initial, "0 value") [3] [cfu/ml] | Aspergillus niger germ count at 2 days [3] [cfu/ml] | Aspergillus niger germ count at 7 days [3] [cfu/ml] | cfu/ml at 0 days [4] [cfu/ml] | cfu/ml at 2 days [4] [cfu/ml] | cfu/ml at 7 days [4] [cfu/ml] | cfu/ml at 14 days [4] [cfu/ml] | cfu/ml at 0 days [5] [cfu/ml] | cfu/ml at 2 days [5] [cfu/ml] | cfu/ml at 7 days [5] [cfu/ml] | cfu/ml at 0 days [6] [cfu/ml] | cfu/ml at 2 days [6] [cfu/ml] | cfu/ml at 7 days [6] [cfu/ml]
1 | Cc1ccc(CO)cc1 [4-Methylbenzyl alcohol, 4-methylbenzyl alcohol] | 320000 | 302000 | 167000 | 320000 | 302000 | 167000 | 320000 | 302000 | 167000 | 250000 | 208000 | 302000 | 132000 | 250000 | 208000 | 302000 | 250000 | 208000 | 302000
2 | CCCC(O)CO (centres unmarked) [1,2-Pentanediol, reference compound] | – | – | – | – | – | – | – | – | – | 250000 | 246000 | 265000 | 246000 | – | – | – | – | – | –
3 | CCCCCCCCC(O)CO (centres unmarked) [1,2-Decanediol, reference compound] | – | – | – | – | – | – | – | – | – | – | – | – | – | – | – | – | 250000 | 208000 | 302000
4 | CCCCC(O)CO (centres unmarked) [1,2-Hexanediol, reference compound] | – | – | – | – | – | – | – | – | – | – | – | – | – | 250000 | 212000 | 132000 | – | – | –
